From patent US20260151375A1, “CDK2 INHIBITORS AND METHODS OF USING THE SAME” (Cedilla Therapeutics, Inc., priority 2022, published 2026)

Assays:
CDK2/Cyclin E1 = molecular target: T1, CDK2/Cyclin E1 (Homo sapiens, UniProt P24941); experiment: Caliper Assay (LabChip EZ Reader mobility shift assay), inhibition of CDK2/Cyclin E1 activity; format: biochemical; conditions: 2.5 nM CDK2/Cyclin E1(14-475), 100 μM ATP, 30 min preincubation; read-out: Caliper Assay (CDK2/CCNE1): IC50
T1 construct: purchased 14-475
Procedure, shortened: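 Compounds were preincubated 30 min with CDK2/Cyclin E1(14-475), then run for 100 min with 2.5 nM enzyme, 100 μM ATP and 1.5 μM 5-FAM-QSPKKG peptide in HEPES pH 7.5 (final). Reactions were EDTA-stopped and substrate-to-product conversion read by mobility shift. IC50 came from a four-parameter fit.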

Kuramochi cells = experiment: IncuCyte Kuramochi Assay (cell proliferation); format: cell-based; conditions: 72 h, Kuramochi cells labeled with mApple-H2B, cell count, read-out: IncuCyte - Kuramochi RB-WT: IC50
Procedure, shortened: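 GI50 came from dose-response fits of cell-count fold change between 0 and 72 h, normalized to DMSO controls. Counts were fluorescent nuclei from live-cell images over a 10-point, ½ log series starting at 20 μM.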

| Structure (SMILES) | IC50 (CDK2/Cyclin E1) [µM] | IC50 (Kuramochi cells) [µM] |
| --- | --- | --- |
| O=C(c1cncs1)N1CC(c2nc3cc(Oc4ccccc4)ccc3o2)C2(C1)CN(C(=O)[C@H]1CC1(F)F)C2 (stereo partly drawn) [I-145, (2-((R)-2,2-difluorocyclopropane-1-carbonyl)-8-(5-phenoxybenzo[d]oxazol-2-yl)-2,6-diazaspiro[3.4]octan-6-yl)(thiazol-5-yl)methanone] | > 10 | > 10 |
| CC(C)(C#N)C(=O)N1CC2(CN(Cc3cnccn3)CC2c2nnc(C(F)(F)c3ccc(Cl)c(Cl)c3)o2)C1 (stereo not shown) [I-146] | > 100 | > 10 |
| O=C(C1CNC1)N1CC(c2nnc(C(F)(F)c3ccc(Cl)c(Cl)c3)o2)C2(C1)CN(C(=O)[C@H]1CC1(F)F)C2 (stereo partly shown) [I-147] | > 100 | > 10 |
| O=C([C@H]1CC1(F)F)N1CC2(C1)CN(C(=O)N1CCOCC1)CC2c1nnc(C(F)(F)c2ccc(Cl)c(Cl)c2)o1 (stereo partly drawn) [I-148, (8-(5-((3,4-dichlorophenyl)difluoromethyl)-1,3,4-oxadiazol-2-yl)-2-((R)-2,2-difluorocyclopropane-1-carbonyl)-2,6-diazaspiro[3.4]octan-6-yl)(morpholino)methanone] | > 10 | > 10 |
| O=C(c1nncs1)N1CC(c2nnc(C(F)(F)c3ccc(Cl)c(Cl)c3)o2)C2(C1)CN(C(=O)[C@H]1CC1(F)F)C2 (stereo partly shown) [I-149] | > 10 | > 10 |
| O=C(C1CCNCC1)N1CC(c2nnc(C(F)(F)c3ccc(Cl)c(Cl)c3)o2)C2(C1)CN(C(=O)[C@H]1CC1(F)F)C2 (stereo partly drawn) [I-150, (8-(5-((3,4-dichlorophenyl)difluoromethyl)-1,3,4-oxadiazol-2-yl)-2-((R)-2,2-difluorocyclopropane-1-carbonyl)-2,6-diazaspiro[3.4]octan-6-yl)(piperidin-4-yl)methanone] | > 10 | > 10 |
| O=C(c1noc2cc(Cl)ccc12)N1CC(c2nnc(C(F)(F)c3ccc(Cl)c(Cl)c3)o2)C2(C1)CN(C(=O)[C@H]1CC1(F)F)C2 (stereo partly shown) [I-152] | > 10 | > 10 |
| O=C(C1COC1)N1CC(c2nnc(C(F)(F)c3ccc(Cl)c(Cl)c3)o2)C2(C1)CN(C(=O)[C@H]1CC1(F)F)C2 (stereo partly shown) [I-153] | > 10 | > 10 |
| O=C(c1cncs1)N1CC(c2nnc(C(F)(F)c3ccc(Cl)c(Cl)c3)o2)C2(C1)CN(C1CCOC1)C2 (stereo not shown) [I-154, (8-(5-((3,4-dichlorophenyl)difluoromethyl)-1,3,4-oxadiazol-2-yl)-2-(tetrahydrofuran-3-yl)-2,6-diazaspiro[3.4]octan-6-yl)(thiazol-5-yl)methanone] | > 10 | > 10 |
| O=C(c1ccn[nH]1)N1CC(c2nnc(C(F)(F)c3ccc(Cl)c(Cl)c3)o2)C2(C1)CN(C(=O)[C@H]1CC1(F)F)C2 (stereo partly shown) [I-155] | > 10 | > 10 |
| O=C(c1noc2ccccc12)N1CC(c2nnc(C(F)(F)c3ccc(Cl)c(Cl)c3)o2)C2(C1)CN(C(=O)[C@H]1CC1(F)F)C2 (stereo partly drawn) [I-156, benzo[d]isoxazol-3-yl(8-(5-((3,4-dichlorophenyl)difluoromethyl)-1,3,4-oxadiazol-2-yl)-2-((R)-2,2-difluorocyclopropane-1-carbonyl)-2,6-diazaspiro[3.4]octan-6-yl)methanone] | > 10 | > 10 |
| O=C(c1cncs1)N1CC(c2nnc(C(F)(F)c3ccc(Cl)c(Cl)c3)o2)C2(C1)CN(C(=O)[C@H]1CCCO1)C2 (stereo partly shown) [I-157] | 1 to 10 | > 10 |
| O=C(C1CCOCC1)N1CC(c2nnc(C(F)(F)c3ccc(Cl)c(Cl)c3)o2)C2(C1)CN(C(=O)[C@H]1CC1(F)F)C2 (stereo partly shown) [I-158] | > 10 | > 10 |
| CC(C)(C#N)C(=O)N1CC2(CN(Cc3cncs3)CC2c2nnc(C(F)(F)c3ccc(Cl)c(Cl)c3)o2)C1 (stereo not shown) [I-159, 3-(8-(5-((3,4-dichlorophenyl)difluoromethyl)-1,3,4-oxadiazol-2-yl)-6-(thiazol-5-ylmethyl)-2,6-diazaspiro[3.4]octan-2-yl)-2,2-dimethyl-3-oxopropanenitrile] | > 10 | > 10 |
| O=C(C#CCO)N1CC(c2nnc(C(F)(F)c3ccc(Cl)c(Cl)c3)o2)C2(C1)CN(C(=O)[C@H]1CC1(F)F)C2 (stereo partly shown) [I-160] | > 10 | > 10 |
| O=C(c1cc(C(F)(F)F)n[nH]1)N1CC(c2nnc(C(F)(F)c3ccc(Cl)c(Cl)c3)o2)C2(C1)CN(C(=O)[C@H]1CC1(F)F)C2 (stereo partly shown) [I-161] | > 10 | 5 to 10 |

More lines, main results first:

| IC50 (CDK2/Cyclin E1) [µM] | Structure (SMILES) | IC50 (Kuramochi cells) [µM] |
| --- | --- | --- |
| > 10 | O=C(c1[nH]ncc1F)N1CC(c2nnc(C(F)(F)c3ccc(Cl)c(Cl)c3)o2)C2(C1)CN(C(=O)[C@H]1CC1(F)F)C2 (stereo partly shown) [I-162] | > 10 |
| > 10 | O=C(c1[nH]ncc1C(F)(F)F)N1CC(c2nnc(C(F)(F)c3ccc(Cl)c(Cl)c3)o2)C2(C1)CN(C(=O)[C@H]1CC1(F)F)C2 (stereo partly shown) [I-163] | > 10 |
| > 10 | O=C(c1cncs1)N1CC(c2nnc(C(F)(F)c3ccc(Cl)c(Cl)c3)o2)C2(C1)CN(C(=O)[C@@H]1CCCO1)C2 (stereo partly shown) [I-164] | > 10 |
| 1 to 10 | O=C(c1cnc2ccccc2n1)N1CC(c2nnc(C(F)(F)c3ccc(Cl)c(Cl)c3)o2)C2(C1)CN(C(=O)[C@H]1CC1(F)F)C2 (stereo partly shown) [I-165] | > 10 |
| > 10 | O=C(c1nccnc1O)N1CC(c2nnc(C(F)(F)c3ccc(Cl)c(Cl)c3)o2)C2(C1)CN(C(=O)[C@H]1CC1(F)F)C2 (stereo partly shown) [I-166] | > 10 |
| > 10 | O=C(c1cn[nH]c1C(F)(F)F)N1CC(c2nnc(C(F)(F)c3ccc(Cl)c(Cl)c3)o2)C2(C1)CN(C(=O)[C@H]1CC1(F)F)C2 (stereo partly drawn) [I-167, (8-(5-((3,4-dichlorophenyl)difluoromethyl)-1,3,4-oxadiazol-2-yl)-2-((R)-2,2-difluorocyclopropane-1-carbonyl)-2,6-diazaspiro[3.4]octan-6-yl)(5-(trifluoromethyl)-1H-pyrazol-4-yl)methanone] | > 10 |
| > 10 | O=C(c1cncs1)N1CC(c2nnc(C(F)(F)c3ccc(Cl)c(Cl)c3)o2)C2(C1)CN(C(=O)[C@H]1CCCN1)C2 (stereo partly drawn) [I-169 1st, 2-(2-(D-prolyl)-6-(thiazole-5-carbonyl)-2,6-diazaspiro[3.4]octan-8-yl)-5-((3,4-dichlorophenyl)difluoromethyl)-1,3,4-oxadiazole] | 5 to 10 |
| > 10 | O=C(c1cncs1)N1CC(c2nnc(C(F)(F)c3ccc(Cl)c(Cl)c3)o2)C2(C1)CN(C(=O)[C@@H]1CCCN1)C2 (stereo partly shown) [I-169 2nd] | > 10 |
| > 10 | CC(C)(C(=O)N1CC2(C1)CN(c1ncnc3ncsc13)CC2c1nnc(C(F)(F)c2ccc(Cl)c(Cl)c2)o1)C(F)F (stereo not shown) [I-170, 1-(8-(5-((3,4-dichlorophenyl)difluoromethyl)-1,3,4-oxadiazol-2-yl)-6-(thiazolo[4,5-d]pyrimidin-7-yl)-2,6-diazaspiro[3.4]octan-2-yl)-3,3-difluoro-2,2-dimethylpropan-1-one] | > 10 |
| > 10 | O=C([C@H]1CC1(F)F)N1CC(c2nnc(C(F)(F)c3ccc(Cl)c(Cl)c3)o2)C2(C1)CN(C(=O)[C@H]1CC1(F)F)C2 (stereo partly shown) [I-171] | > 10 |
| > 10 | O=C(c1cncs1)N1CC(c2nnc(C(F)(F)c3ccc(Cl)c(Cl)c3)o2)C2(C1)CN(C(=O)C1CNC1)C2 (stereo not shown) [I-173] | > 10 |
| 1 to 10 | CC1(C(=O)N2CC3(C2)CN(c2ncnc4ncsc24)CC3c2nnc(C(F)(F)c3ccc(Cl)c(Cl)c3)o2)CC1(F)F (stereo not shown) [I-174, (8-(5-((3,4-dichlorophenyl)difluoromethyl)-1,3,4-oxadiazol-2-yl)-6-(thiazolo[4,5-d]pyrimidin-7-yl)-2,6-diazaspiro[3.4]octan-2-yl)(2,2-difluoro-1-methylcyclopropyl)methanone] | > 10 |
| > 10 | CC(C)(C#N)C(=O)N1CC2(CN(C(=O)c3cnccn3)CC2c2nnc(C(F)(F)c3ccc(Cl)c(Cl)c3)o2)C1 (stereo not shown) [I-175] | > 10 |
| 1 to 10 | O=C(c1cnccn1)N1CC(c2nnc(C(F)(F)c3ccc(Cl)c(Cl)c3)o2)C2(C1)CN(C(=O)[C@H]1CC1(F)F)C2 (stereo partly drawn) [I-176, (8-(5-((3,4-dichlorophenyl)difluoromethyl)-1,3,4-oxadiazol-2-yl)-2-((R)-2,2-difluorocyclopropane-1-carbonyl)-2,6-diazaspiro[3.4]octan-6-yl)(pyrazin-2-yl)methanone] | > 10 |
| > 10 | CC(C)(C#N)C(=O)N1CC2(CN(C(=O)c3cn[nH]c3)CC2c2nnc(C(F)(F)c3ccc(Cl)c(Cl)c3)o2)C1 (stereo not shown) [I-177] | > 10 |
| > 10 | CC(C)(O)C(=O)N1CC2(CN(C(=O)c3cncs3)CC2c2nnc(C(F)(F)c3ccc(Cl)c(Cl)c3)o2)C1 (stereo not shown) [I-178] | > 10 |
| > 10 | CC1(C)OC1C(=O)N1CC2(CN(C(=O)c3cncs3)CC2c2nnc(C(F)(F)c3ccc(Cl)c(Cl)c3)o2)C1 (stereo not shown) [I-179, (8-(5-((3,4-dichlorophenyl)difluoromethyl)-1,3,4-oxadiazol-2-yl)-2-(3,3-dimethyloxirane-2-carbonyl)-2,6-diazaspiro[3.4]octan-6-yl)(thiazol-5-yl)methanone] | 5 to 10 |
| > 10 | O=C(c1cncs1)N1CC(c2nnc(C(F)(F)c3ccc(Cl)c(Cl)c3)o2)C2(CC(C(=O)N3CCC3)C2)C1 (stereo not shown) [I-180] | > 10 |
| > 10 | O=C(N1CC2(C1)CN(c1ncnc3ncsc13)CC2c1nnc(C(F)(F)c2ccc(Cl)c(Cl)c2)o1)C1(C(F)(F)F)CC1 (stereo not shown) [I-181, (8-(5-((3,4-dichlorophenyl)difluoromethyl)-1,3,4-oxadiazol-2-yl)-6-(thiazolo[4,5-d]pyrimidin-7-yl)-2,6-diazaspiro[3.4]octan-2-yl)(1-(trifluoromethyl)cyclopropyl)methanone] | > 10 |
